Legend:
[1] = system: puncture-induced IVDD rat model; experiment: In vivo fluorescence imaging of intervertebral disc degeneration; design: species or system Sprague-Dawley rat; conditions: intradiscal injection, 0, 1, 2, 4 weeks after puncture
Procedure: and signals were collected from 530 to 610 nm.
Chondrocytes spheroid cultivation
Chondrocytes were isolated from articular cartilage and resuspended in 1mL DMEM/F12 medium containing 10 μM ITS-A. A total of […] were counted and transferred into centrifuge tubes. The cells were incubated in these tubes with half of the medium changed periodically.
Intracellular imaging in chondrocytes and 3D cell spheroids
The chondrocytes or 3D cell spheroids were seeded in dishes and cultured overnight. Subsequently, the cells or spheroids were incubated with H2O2 for 30, 60 and 90 minutes. Afterward, the cells were further incubated in medium containing 5 μM FPy1 for 1 hour. Fluorescence imaging was then performed with an excitation of 514 nm, and signals were […]
Flow cytometry assays in THP-1 cells
The flow cytometry assays were performed to evaluate the response of FPy1 in THP-1 cells. THP-1 cells were seeded in 6-well plates at a density of 10^5 cells per well and cultured overnight. […] The results were analyzed with using FlowJo […]
Fixed cells or tissue sections were washed with PBS, permeabilized with 0.2 % Triton X-100 (Sigma–Aldrich) for 20 minutes, and blocked with 5 % bovine serum albumin for 1 hour at 37 °C. […] Staining results were examined under a fluorescence microscope (Olympus, IX83-FV3000) and quantified using ImageJ (Bethesda, MD, V1.8.0, NIH). […]

[2] = system: Cas-1 in chondrocyte spheroids; experiment: Imaging in chondrocyte 3D cell spheroids; assay type: cell-based; conditions: H2O2 2 mM 30, 60, 90 min; FPy1 5 μM; compared with 2D cultures
Procedure: The decline in chondrocyte function plays a crucial role in the pathogenesis of OA. Inflammasome-mediated chondrocyte pyroptosis has been closely associated with matrix degradation and cartilage degeneration in OA.[38] To model OA in vitro, primary chondrocytes were stimulated with H2O2 (2 mM) for different durations, followed by staining with FPy1 (5 μM) and fluorescence imaging to monitor the progression of pyroptosis under oxidative stress. […] To better mimic the in vivo pathological features of OA, primary chondrocytes were also cultured as three-dimensional spheroids and stimulated with H2O2. […] Furthermore, we evaluated the capability of FPy1 to monitor pyroptosis progression at different stages of OA in a mouse model. […] The pathological manifestations in the corresponding tissues became more pronounced with longer modeling periods, consistent with the fluorescence imaging results obtained using FPy1. […]
Chondrocytes were isolated from articular cartilage and resuspended in 1mL DMEM/F12 medium containing 10 μM ITS-A. A total of […] were counted and transferred into centrifuge tubes. […]
The chondrocytes or 3D cell spheroids were seeded in dishes and cultured overnight. […] Fluorescence imaging was then performed with an excitation of 514 nm, and signals were […]

“–FLTDG– [FPy1, RhoB donor, hNR quencher]” was tested, and the “in vivo fluorescence at puncture site” value ([1]; Co5/6, Co6/7, Co7/8) was “significant enhancement of fluorescence at the corresponding areas”, the “differentiation of IVDD stages by fluorescence intensity” value [1] was “could significantly differentiate the four different stages of IVDD” and the “fluorescence enhancement in chondrocyte spheroids” value [2] was “more pronounced fluorescence enhancement in chondrocyte spheroids than in two-dimensional cultures”.

Reference: article PMC12598616, “Design and optimization of caspase-1-responsive fluorescent probes for pyroptosis imaging and anti-pyroptosis drug screening” (Chemical Science, 2025)
